For three compounds, IC50 and Ki results are on record in BindingDB's records for doi:10.3109/14756366.2011.572879 (Ataturk University, 2012).

pIC50, pKi: −log10 of the molar value. Counter-ions that a name gives are not always drawn.

This experiment addresses T1, Glutathione reductase, mitochondrial (Homo sapiens, UniProt P00390).
T1 sequence (P00390 whole entry): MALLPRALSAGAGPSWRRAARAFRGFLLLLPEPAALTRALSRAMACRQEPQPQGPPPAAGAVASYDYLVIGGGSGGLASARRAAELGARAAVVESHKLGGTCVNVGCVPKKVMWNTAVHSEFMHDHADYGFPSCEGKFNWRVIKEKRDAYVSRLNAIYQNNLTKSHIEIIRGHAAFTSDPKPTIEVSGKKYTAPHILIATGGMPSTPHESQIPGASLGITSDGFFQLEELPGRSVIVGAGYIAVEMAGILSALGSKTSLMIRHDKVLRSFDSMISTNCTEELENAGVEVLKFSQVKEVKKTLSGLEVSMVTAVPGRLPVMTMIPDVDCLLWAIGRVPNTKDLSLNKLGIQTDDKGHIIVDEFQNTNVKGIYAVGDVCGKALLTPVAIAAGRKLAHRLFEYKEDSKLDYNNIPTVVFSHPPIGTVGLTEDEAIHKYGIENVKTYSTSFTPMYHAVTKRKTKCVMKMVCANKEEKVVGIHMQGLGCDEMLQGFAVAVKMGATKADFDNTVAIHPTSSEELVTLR
As to the kind of experiment: Activity Assay. To be noted: pH 8; 25 °C. The protocol:
The assay system contained 40 mM Tris-HCl buffer, pH 8.0, including 0.8 mM EDTA, 1 mM GSSG and 0.1 mM NADPH in 1 mL total reaction volume. The activity was measured by monitoring the decrease in absorbance at 340 nm due to the oxidationof NADPH at 25°C. One enzyme unit is defined as the oxidation of […] NADPH per min under the assay conditions.

In the case of `CN1CCC(=C2c3ccccc3CC(=O)c3sccc32)CC1` [(Z)-2-butenedioate;10-(1-methyl-4-piperidinylidene)-5H-benzo[1,2]cyclohepta[3,4-b]thiophen-4-one], the pIC50 (as a rule, the negative decadic logarithm of the IC50, by convention in mol/L) was 4.92 and the pKi (usually −log10 of the Ki, conventionally taken in molar units) was 6.10.

`O=C(O)CN(CCN(CC(=O)O)CC(=O)O)CCN(CC(=O)O)CC(=O)O` [Gadopentetic acid]: the pKi was 1.54.

Consider `OC(CNc1ccccn1)c1ccccc1` (stereo not given) [Phenyramidol-HCl], for which the negative-log IC50 (pIC50) is 3.00 and the pKi was 3.36.
